Source: US12180255B2, “Compositions and methods for derepressing RE1 silencing transcription factor target genes” (Alcamena Stem Cell Therapeutics, LLC, priority 2019, dated 2024)
*1 amine or outer side, *2 acyl side, *3 side chain or, on linkers, in order; H or OH if unused. Where a SMILES comes first, the peptide text is derived from it. Bridges are numbered along the chain shown (N, C = ends). Where no end group is shown, it is not given here. [ ]: non-standard residue; d: D form. ξ: configuration not given here. ξGly(dodecyl) = CCCCCCCCCCCCC(N)C(=O)O; mXylylene = c1cc(C[*:1])cc(C[*:2])c1

Assays:
[1] = system: mesenchymal progenitor cells (MPCs); assay: BDNF and NGF mRNA expression in MPCs; format: cell-based, human; conditions: MPC, 3 μM
Protocol: FIG. 10. BDNF and NGF mRNA expression (normalized to actin) in mesenchymal progenitor cells (MPCs), from two patients, after a 48 hour incubation with water (Ctrl) or […] RPP (SEQ. ID NO: 9). mRNA levels are shown relative to control (standard deviation, n=2).
Mesenchymal progenitor cells (MPCs) (FIG. 10) from two patients were plated on 12 well plates and cultured in general medium (GM) (DMEM, 10% FBS, PSF). Lyophilized RPP (SEQ ID NO: 9) was dissolved in water at a concentration of 5 mM (1 mg/34.89, diluted in medium to 3 μM, and then incubated with the cell for 48 hours. The control was water.
MPCs were cultured as described in Gervasi et al., 2020^76.

NBFL cells = assay: BDNF, NGF and KV4.3 transcript levels in NBFL cells dosed with linear or cyclic RPP; format: cell-based; conditions: 1 μM
Protocol: FIG. 9. Comparison of linear and cyclic RPP. […] Efficacy on was assessed by measuring changes in (A) BDNF, (B) NGF, and (C) KV4.3 transcript levels. N=1
Plasmids. RPP (SEQ ID NOS: 2 and 4): One segment of this construct containing T7 promoter, CPP, and His tag was synthesized as a gBlock (Table 8) by IDT and amplified with primers described in Table 8. The PCR reaction (20 μL) was initially heated at 95° C. for 2.5 min followed by 30 cycles of denaturation at 94° C. for 15 sec., annealing at 55° C. for 15 sec., and extension at 72° C. for 30 seconds. Following amplification, PCR fragment was gel-purified by the QIAGEN gel-band purification kit according to manufacturer's protocol.
In vitro Expression. RPP (Table 8) or CP (Table 9) were expressed in vitro using the PURE Express In Vitro Protein Synthesis Kit (New England Biolabs). The RPP (SEQ ID NOS: 2 and 4) or CP sequence was amplified from the RPP (SEQ ID NOS: 2 and 4) or CP expression constructs (Table 8 and 9) with primers listed in Table 8, and gel-purified by the QIAGEN gel-band purification kit. The PCR reaction (20 μL) was initially heated at 95° C. for 2.5 min followed by 30 cycles of denaturation at 94° C. for 15 sec., annealing at 55° C. for 15 sec., and extension at 72° C. for 30 sec. Then, 15 μL of the purified PCR fragment was mixed with 10 μL of Solution A and 7.5 μL of Solution B of the PURE Express In Vitro Protein Synthesis Kit (New England Biolabs) and incubated 2 hours at 37° C. Next, 2 μL of DNAse I was added and incubated for 20 min at 37° C.
Purification. RPP (SEQ ID NOS: 2 and 4) and CP: The final solution from the in vitro expression step was diluted to 100 μL and filtered through the Amicon Ultracel 0.5 mL-100K columns (Sigma) to remove ribosomes. The flow through was added to 100 μL of washed Ni-NTA Magnetic Agarose Beads (Qiagen) and was washed with wash buffer as described by the manufacturer.
Cyclization. The RPP (SEQ ID NO: 2) or was cyclized by mixing the beads with 500 μL of the cyclization solution which was made by mixing 2.65 mL of the 1.33×PBS (66.5 mM phosphate buffer, 400 mM NaCl) with 1.32 mL of dibromo-m-xylene solution in acetonitrile (2.5 mg/mL). Following incubation with the cyclization solution beads were washed once with wash buffer I (PBS with 25 mM imidazole, 0.5 μL/mL of mercaptoethanol), once with wash buffer II (PBS with 25 mM imidazole, 0.5 mM TCEP), twice with wash buffer III (PBS with 25 mM imidazole) and eluted with 50 μL of the elution buffer (PBS with 500 mM imidazole). Imidazole was removed using Bio-Rad Micro Bio-Spin Chromatography columns.
Dosing and Cell Culture. NBFL cells (FIG. 9) grown in 6 well were dosed with 1 μM of linear (SEQ ID NO: 2) or cyclic (SEQ ID NO: 2) RPP (Table 8) or control peptide (Table 9) for 16 or 48 hours.
After dosing, cells were lysed and assessed for BDNF, NGF, and KV4.3 mRNA levels (FIG. 9). All of the primers used have been described except for NGF: forward: 5′[…]3′ (SEQ ID NO: 338) and reverse 5′[…]3′ (SEQ ID NO: 339).

[2] = system: iPSCs (neural stem cells (NSC)-NL5); assay: Neuronal differentiation of iPSC NSC-NL5 (MAP2, TUJ1 normalized to DAPI); format: cell-based, human; conditions: 7 days
Protocol: FIG. 11. iPSCs (neural stem cells (NSC)-NL5) were dosed with one of the RPP sequences (3 μM) or water control shown below. After 7 days in culture, cells were assessed for neuronal differentiation using the Microtubule Associated Protein 2 (MAP2) neuronal marker (normalized to DAPI). Media and variants were replaced on Day 3. MAP2 levels are relative to control in the bar graph (standard deviation n=4).
FIG. 12. iPSCs (neural stem cells (NSC)-NL5) were with 1 μM RPP (SEQ ID NO. 9) or water control. After 7 days in culture, cells were assessed for neuronal differentiation using neuronal markers TUJ1 (class III beta-tubulin) and MAP2 (both normalized to DAPI). Media and RPP were replaced on Day 3. (standard deviation, n=6).
FIG. 13. iPSCs (neural stem cells (NSC)-NL5) were with 1 μM RPP (SEQ ID NO. 13) or water control. After 7 days in culture, cells were assessed for neuronal differentiation using neuronal markers TUJ1 and MAP2 (both normalized to DAPI). Media and RPP were replaced on Day 3. (standard deviation, n=6).
Approach 2: Induced pluripotent stem cells (neural stem cells (NSC)-NL5) differentiate after 7 Days of RPP dosing (FIG. 11 (SEQ ID NOS: 5-11, 3 μM); FIG. 12 (SEQ ID NO: 9, 1 μM) FIG. 13 (SEQ ID NO: 13 (FIG. 27), 1 μM)) using the following “Neuron to Blank” protocol: • 1. 24 well culture plates (Black Visiplate) were coated with Matrigel ([…] for 30 minutes at 37° C.). • 2. NSCs-NLS (see media below) were plated at 0.5×10^5 per well.
• 3. After 24 hours (cells should be >70% confluent), the media was changed to neuronal differentiation medium (below) with various concentrations of test peptides or water control added (FIGS. 11, 12, and 13, Table 14). The neuronal differentiation medium, with new test peptides and control, was changed every 2 days for 5 days.
• 4. On Day 7 cells were fixed 4% formaldehyde in 1×PBS for 30 minutes. • 5. Cells were immunolabeled with mouse anti-TUJ1 (1:1000) and rabbit anti-Map2 (1:500) overnight. Then label with 2nd antibody (anti-mouse488, anti-rabbit568 and DAPi) for 1 hour. • 6. Data was collected on a BioTek plate reader • a. Dapi: Excitation 360/40; Emission 460/20, Gain 35; • b. Alexa 488: Excitation 485/20; Emission 528/20, Gain 50; • c. Alexa 568: Excitation 560/20; Emission 620/10, Gain 75).

L5 DRGs = assay: qRT-PCR mRNA expression in ex vivo cultured L5 DRGs; format: cell-based, Sprague Dawley rat; conditions: DRG; 1 μM; 48 h
Protocol: FIG. 15. […] Error bars =standard error of the mean.
L5 DRGs were dissected from adult male rats and plated in 12-well plates pre-coated with poly-D-Lysine (PDL) and laminin in a minimal volume of medium (250 ul Neurobasal™-A medium (GIBCO) supplemented with B27 (GIBCO), 50 ng/ml NGF (Sigma-Aldrich) and penicillin streptomycin) to allow attachment to the culture plate. One day after plating, DRGs were incubated with RPP (SEQ. ID NO: 12: 1 μM, 3 μM or 10 μM in culture medium, FIGS. 14 and 16; SEQ ID NOS: 13 and 14: 3 μM, FIG. 15) for 48 h. For RNA expression analysis, DRGs were lysed in 300 μl of Qiazol in a 1.5 ml tube containing Bullet Blender Pink Beads using a Bullet Blender Tissue Homogenizer (NextAdvance). Total RNA was extracted using RNeasy Midi Kit (Qiagen) according to manufacturer's instructions. Purified RNA was quantified with NanoDrop 2000 (ThermoFIsher), and reverse transcription was run using High Capacity cDNA Reverse Transcription Kit (Applied Biosystems) and 2 ng/ul RNA per reaction. For qRT-PCR, 5 ul of cDNA (corresponding to 10 ng of RNA) were mixed with to 10 ul SsoAdvanced™ Universal SYBR® Green Supermix (BioRad) and 1 ul of each primer (final primer concentration 500 nM each). Reactions were run in triplicates in a QuantStudio™ 7 Flex Real-Time PCR system (Applied Biosystems). Amplification data were analyzed using the comparative cycle threshold (ΔΔCt) method and β-actin as calibrator. Primers were as follows: β-actin: F-[…] (SEQ ID NO: 340), R-[…] (SEQ ID NO: 333); KV4.3: F-[…] (SEQ ID NO: 341), R-[…] (SEQ ID NO: 342); KV7.2 F-[…] AG (SEQ ID NO: 343), R-[…] (SEQ ID NO: 344); OPRM1: F-[…] (SEQ ID NO: 345), R-[…] (SEQ ID NO: 346).

[3] = Localization in spinal cord after injection at sciatic nerve defect; conditions: 1 mg injected into site of sciatic nerve defect, 48 hours
Protocol: FIG. 5. […] A 0.7 cm coronal spinal cord section from the […] region of a Sprague Dawley (SD) male rat showing the surrounding nuclei of the sciatic nerve, harvested 48 hours after 1 mg (1 mg/mL) of peptide was injected into the sight of a mid-thigh sciatic nerve defect injury.
Dosing and Procedure. […] After 48 hours, the animal was sacrificed and the spinal cord from the L4 to L6 region was sectioned coronally.
Immunohistochemistry. Hoechst 333429 (Calbiochem) dye was used to visualize the nucleus, and FLAG antibody (Sigma-Aldrich) was used to visualize the RPP. Images were taken with a light microscope.

Compound: rrrrwrrwwrrwrrnekplppeppeldet ([dR][dR][dR][dR][dW][dR][dR][dW][dW][dR][dR][dW][dR][dR][dN][dE][dK][dP][dL][dP][dP][dE][dP][dP][dE][dL][dD][dE][dT]) [SEQ ID NO: 9]
- Increase, BDNF mRNA ([1]; 48 h): 2x
- Increase, NGF mRNA ([1]; 48 h): 2.9x
- increase of BDNF relative to water control ([1]; 48 hours): approximately 2 times
- increase of NGF relative to water control ([1]; 48 hours): ~3 times

Compound: MCTEDLEPPEPPLPKENCGSGSGRKKRRQRRRGGSGSLGHHHHHHGTGY (linker 2-18 via mXylylene (inferred)) [SEQ ID NO: 2, RPP-CPP-His, cyclized with dibromo-m-xylene]
- Increase, BDNF mRNA (NBFL cells; 16 h): 5x
- Increase, KV4.3 mRNA (NBFL cells; 16 h): 5x
- Increase, NGF mRNA (NBFL cells; 16 h): 3.2x
- Increase, BDNF mRNA (NBFL cells; 48 h): 2.3x
- Increase, KV4.3 mRNA (NBFL cells; 48 h): 5x
- Increase, NGF mRNA (NBFL cells; 48 h): 1.7x
- Increase, BDNF mRNA (NBFL cells; 48 h, listed as Cyclic): 1.75× x
- Increase, KV4.3 mRNA (NBFL cells; 48 h, listed as Cyclic): 25× x
- Increase, NGF mRNA (NBFL cells; 48 h, listed as Cyclic): 1.87 x

Compound: SEQ ID NO: 13: CPP with poly arginine sequence and two 2-aminotetradecanoic acids integrated with the REST RI phosphomimetic ([dR][dR][ξGly(dodecyl)][dR][dR][ξGly(dodecyl)][dR][dR][dR][dR][dR][dK][dP][dL][dP][dP][dE][dP][dP][dE][dL][dD][dE])
- increase of differentiation, MAP2 normalized to DAPI ([2]; 0.1 μM): 27%
- increase of differentiation, TUJ1 normalized to DAPI ([2]; 0.1 μM): 60%
- increase of differentiation, MAP2 normalized to DAPI ([2]; 1 μM): 2 times
- increase of differentiation, TUJ1 normalized to DAPI ([2]; 1 μM): 3 times
- Increase, Nav1.8 mRNA (L5 DRGs): 6x

Compound: CC(C)C[C@H](NC(=O)[C@H](CC(=O)O)NC(=O)[C@H](CCC(=O)O)NC(=O)[C@@H](NC(=O)[C@H](CCCCN)NC(=O)[C@H](CC(=O)O)NC(=O)[C@H](CC(=O)O)NC(=O)[C@H](CC(=O)O)NC(=O)[C@H](CC(=O)O)NC(=O)[C@H](CCCCN)NC(=O)[C@H](Cc1ccc(O)cc1)NC(=O)[C@H](CC(=O)O)NC(=O)[C@H](CCCCN)NC(=O)[C@H](CCC(N)=O)NC(=O)[C@H](C)NC(=O)[C@@H](N)CS)[C@@H](C)O)C(=O)N[C@@H](CCC(=O)O)C(=O)N1CCC[C@H]1C(=O)N1CCC[C@H]1C(=O)N[C@@H](CCC(=O)O)C(=O)N1CCC[C@H]1C(=O)N1CCC[C@H]1C(=O)N[C@@H](CC(C)C)C(=O)N1CCC[C@H]1C(=O)N[C@@H](CCCCN)C(=O)N[C@@H](CCC(=O)O)C(=O)N[C@@H](CC(N)=O)C(=O)NCC(=O)N[C@@H](CCCNC(=N)N)C(=O)N[C@@H](CCCCN)C(=O)N[C@@H](CCCCN)C(=O)N[C@@H](CCCNC(=N)N)C(=O)N[C@@H](CCCNC(=N)N)C(=O)N[C@@H](CCC(N)=O)C(=O)N[C@@H](CCCNC(=N)N)C(=O)N[C@@H](CCCNC(=N)N)C(=O)N[C@@H](CCCNC(=N)N)C(=O)NCC(=O)O [SEQ ID NO: 4] (H-CAQKDYKDDDDKTEDLEPPEPPLPKENGRKKRRQRRRG-OH; N-terminus and C-terminus assumed)
- localization in nuclei of sciatic nerve neurons in spinal cord [3]: accumulates in the nuclei of the sciatic nerve in spinal cord
- localization in nuclei of sciatic nerve neurons in spinal cord ([3]; listed as Linear RPP): accumulates in the nucleus of sciatic nerve tissue
